Measurements reported in patent US12263139B2, “Use of cannabidiol in the treatment of tuberous sclerosis complex” (Jazz Pharmaceuticals Research UK Limited, priority 2017, dated 2025).

Experiments:
[1] = stomatitis, infections, rash, fatigue, diarrhoea, oedema, abdominal pain, nausea, fever, asthenia, cough, headache, decreased appetite; cited from earlier work
[2] = test system: Miapaca; test: Drug combination assay (MTT, CalcuSyn) of Rad001 and CBD in Miapaca; format: cell-based, Homo sapiens
Method: For the study of the synergism between Rad001 and CBD on pancreatic cell lines Miapaca was tested, the cells were seeded in 96-multiwell plates at the density of 3.8 10^3 cells/well. After 24 hr incubation at 37° C., the cells were treated with different concentrations of Rad001 and CBD. Different molar ratios between two drugs in different sequences of administration were tested, (Rad001 for 48 h and CBD for 72 h or Rad001 for 72 h and CBD for 48 h and in co-administration for 72 h.
The proliferative response was estimated by colorimetric 3-(4,5 di-methylthiazol-2-yl)-2,5-diphenyltetrazolium bromide (MIT) test. MTT conversion to formazan by metabolically viable cells was monitored by spectrophotometer at an optical density of 570 nm. Each data point represents the average of three separate experiments with each experiment containing four wells. Drug combination studies were based on concentration-effect curves generated as a plot of the fraction of unaffected (surviving) cells versus drug concentration after treatment.
To explore the relative contribution of each agent to the synergism equi-active doses of […] were tested (IC50). Assessment of synergy was performed quantitating drug interaction by Calcusyn computer program (Biosoft, Ferguson, MO). Combination index (CI) values of <1, 1, and >1 indicate synergy, additivity and antagonism, respectively.
Dose reduction index (DRI) representing the measure of how much the dose of each drug in a combination may be reduced at a given effect level compared with the doses of each drug alone.
The effects of the pharmacological combination between CBD and RAD001 on the proliferation MIAPACA cell lines, using MTT assay were studied. The data obtained were processed with dedicated program, CalcuSyn (Chou and Talalay, Biosoft, Oregon, USA), which measures synergism.
The specific contribution of CBD and Rad001 on the cytotoxic effect of the combination of drugs was analyzed by calculating the potentiation factor (PF) defined as the ratio of the IC50 of either CBD or Rad001 alone to the IC50 of CBD and Rad001 in combination. A higher PF indicates a greater cytotoxicity.

IC50 ([2]; Homo sapiens, MIA PaCa-2, Miapaca, 50% effect level, read-out: Dose of drug alone): 2600 nM
Compound: CO[C@H]1C[C@@H]2CC[C@@H](C)[C@@](O)(O2)C(=O)C(=O)N2CCCC[C@H]2C(=O)O[C@H]([C@H](C)C[C@@H]2CC[C@@H](OCCO)[C@H](OC)C2)CC(=O)[C@H](C)/C=C(\C)[C@@H](O)[C@@H](OC)C(=O)[C@H](C)C[C@H](C)/C=C/C=C/C=C/1C [Rad001, Everolimus, reference compound]
incidence of most common adverse reactions [1]: ≥ 30%
DRI50 ([2]; Miapaca, Rad/CBD combination, dose reduction index): Rad 2.1
potentiation factor (PF) ([2]; ratio of IC50 alone to IC50 of CBD and Rad001 in combination): 4
